In ChEMBL document CHEMBL1154193, “Carbonic anhydrase II-induced selection of inhibitors from a dynamic combinatorial library of Schiff's bases” (Bioorg Med Chem Lett, 2009):
pKi: −log10 of the molar value.

Target: Carbonic anhydrase 2 (Homo sapiens, UniProt P00918)
Description: Inhibition of human carbonic anhydrase 2-catalyzed CO2 hydration by stopped flow technique

Compound: NS(=O)(=O)c1ccc(/N=C/c2ccc(O)cc2)cc1
- pKi: 6.15
